Legend:
Experiment in all cases: relative viability (nuclei count vs DMSO), 5 days (fraction); higher = more cells survive
Omipalisib + Dasatinib = compound: COc1ncc(-c2ccc3nccc(-c4ccnnc4)c3c2)cc1NS(=O)(=O)c1ccc(F)cc1F [Omipalisib] + Cc1nc(Nc2ncc(C(=O)Nc3c(C)cccc3Cl)s2)cc(N2CCN(CCO)CC2)n1 [Dasatinib] (partner 0.075 µM)
Summary of the method: (§1)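 Lung cancer cell lines in 1536-well plates got either a single drug or a fixed anchor-drug dose together with five library-drug doses (not always all listed) in √10 steps, by pin tool, on the day after seeding. Nuclei were counted after 5 days, and relative viability is the treated-to-vehicle ratio of nuclei counts. Values are medians of duplicate plates.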

Omipalisib + Pictilisib = compound: COc1ncc(-c2ccc3nccc(-c4ccnnc4)c3c2)cc1NS(=O)(=O)c1ccc(F)cc1F [Omipalisib] + CS(=O)(=O)N1CCN(Cc2cc3nc(-c4cccc5[nH]ncc45)nc(N4CCOCC4)c3s2)CC1 [Pictilisib] (partner 1 µM)
Summary of the method: as §1

Omipalisib + AZD7762 = compound: COc1ncc(-c2ccc3nccc(-c4ccnnc4)c3c2)cc1NS(=O)(=O)c1ccc(F)cc1F [Omipalisib] + NC(=O)Nc1cc(-c2cccc(F)c2)sc1C(=O)N[C@H]1CCCNC1 [AZD7762] (partner 0.2 µM)
Summary of the method: as §1

Omipalisib + Vorinostat = compound: COc1ncc(-c2ccc3nccc(-c4ccnnc4)c3c2)cc1NS(=O)(=O)c1ccc(F)cc1F [Omipalisib] + O=C(CCCCCCC(=O)Nc1ccccc1)NO [Vorinostat] (partner 1 µM)
Summary of the method: as §1

Omipalisib + Decitabine = compound: COc1ncc(-c2ccc3nccc(-c4ccnnc4)c3c2)cc1NS(=O)(=O)c1ccc(F)cc1F [Omipalisib] + Nc1ncn([C@H]2C[C@H](O)[C@@H](CO)O2)c(=O)n1 [Decitabine] (partner 2 µM)
Summary of the method: as §1

Omipalisib + Linsitinib = compound: COc1ncc(-c2ccc3nccc(-c4ccnnc4)c3c2)cc1NS(=O)(=O)c1ccc(F)cc1F [Omipalisib] + C[C@]1(O)C[C@@H](c2nc(-c3ccc4ccc(-c5ccccc5)nc4c3)c3c(N)nccn32)C1 [Linsitinib] (partner 1 µM)
Summary of the method: as §1

Row | Cell Line | relative viability (Omipalisib + Dasatinib; first compound 0.0003 µM) | relative viability (Omipalisib + Dasatinib; first compound 0.003 µM) | relative viability (Omipalisib + Dasatinib; first compound 0.03 µM) | relative viability (Omipalisib + Pictilisib; first compound 0.0003 µM) | relative viability (Omipalisib + Pictilisib; first compound 0.003 µM) | relative viability (Omipalisib + Pictilisib; first compound 0.03 µM) | relative viability (Omipalisib + AZD7762; first compound 0.0003 µM) | relative viability (Omipalisib + AZD7762; first compound 0.003 µM) | relative viability (Omipalisib + AZD7762; first compound 0.03 µM) | relative viability (Omipalisib + Vorinostat; first compound 0.0003 µM) | relative viability (Omipalisib + Vorinostat; first compound 0.003 µM) | relative viability (Omipalisib + Vorinostat; first compound 0.03 µM) | relative viability (Omipalisib + Decitabine; first compound 0.0003 µM) | relative viability (Omipalisib + Decitabine; first compound 0.003 µM) | relative viability (Omipalisib + Decitabine; first compound 0.03 µM) | relative viability (Omipalisib + Linsitinib; first compound 0.0003 µM) | relative viability (Omipalisib + Linsitinib; first compound 0.003 µM) | relative viability (Omipalisib + Linsitinib; first compound 0.03 µM)
1 | NCI-H596 | 0.618 | 0.44 | 0.295 | 0.43 | 0.386 | 0.412 | 0.966 | 0.546 | 0.479 | 0.581 | 0.364 | 0.447 | 0.846 | 0.75 | 0.506 | 0.817 | 0.517 | 0.355
2 | A-427 | 0.686 | 0.434 | 0.625 | 0.729 | 0.697 | 0.744 | 0.715 | 0.628 | 0.579 | 0.885 | 0.877 | 0.867 | 0.538 | 0.443 | 0.417 | 1.11 | 1.09 | 0.968
3 | HOP-62 | 0.629 | 0.458 | 0.27 | 0.745 | 0.538 | 0.595 | 0.532 | 0.55 | 0.438 | 0.563 | 0.511 | 0.323 | 0.211 | 0.264 | 0.199 | 1.11 | 0.779 | 0.559
4 | NCI-H647 | 0.162 | 0.0952 | 0.0677 | 0.462 | 0.307 | 0.386 | 0.403 | 0.322 | 0.215 | 0.304 | 0.368 | 0.295 | 0.34 | 0.248 | 0.378 | 1.11 | 0.95 | 0.373
5 | LCLC-97TM1 | 0.883 | 0.74 | 0.472 | 0.181 | 0.15 | 0.166 | 0.158 | 0.36 | 0.116 | 0.728 | 0.378 | 0.179 | 0.216 | 0.168 | 0.161 | 0.172 | 0.135 | 0.134
6 | NCI-H1734 | 0.396 | 0.243 | 0.194 | 0.461 | 0.307 | 0.389 | 0.495 | 0.321 | 0.201 | 0.683 | 0.466 | 0.35 | 0.442 | 0.331 | 0.347 | 0.731 | 0.484 | 0.359
7 | H3255 | 0.336 | 0.325 | 0.257 | 0.432 | 0.439 | 0.293 | 1 | 0.869 | 0.566 | 0.811 | 0.623 | 0.269 | 0.534 | 0.471 | 0.305 | 0.999 | 0.888 | 0.485
8 | HCC-15 | 0.552 | 0.349 | 0.42 | 0.698 | 0.599 | 0.702 | 1.23 | 0.916 | 0.91 | 0.816 | 0.651 | 0.489 | 0.591 | 0.394 | 0.372 | 0.929 | 0.77 | 0.799
9 | NCI-H2126 | 0.545 | 0.366 | 0.301 | 0.518 | 0.463 | 0.435 | 1.02 | 0.795 | 0.657 | 0.718 | 0.442 | 0.348 | 0.548 | 0.414 | 0.304 | 0.712 | 0.644 | 0.422
10 | NCI-H1915 | 0.278 | 0.257 | 0.275 | 1.03 | 0.866 | 0.862 | 0.777 | 0.736 | 0.624 | 0.528 | 0.483 | 0.432 | 0.248 | 0.249 | 0.227 | 1.08 | 1.12 | 1.01
11 | NCI-H441 | 0.494 | 0.37 | 0.339 | 0.428 | 0.354 | 0.351 | 1.02 | 1.02 | 0.717 | 0.783 | 0.526 | 0.399 | 0.24 | 0.206 | 0.227 | 0.569 | 0.382 | 0.394
12 | NCI-H1437 | 0.411 | 0.323 | 0.202 | 0.436 | 0.308 | 0.319 | 1.17 | 1 | 0.395 | 0.948 | 0.75 | 0.448 | 0.519 | 0.564 | 0.398 | 0.952 | 0.824 | 0.404
13 | LC-2-ad | 0.503 | 0.47 | 0.168 | 0.517 | 0.582 | 0.238 | 0.855 | 0.762 | 0.464 | 0.67 | 0.575 | 0.303 | 0.812 | 0.739 | 0.63 | 0.848 | 0.587 | 0.314
14 | NCI-H1666 | 0.787 | 0.673 | 0.539 | 0.406 | 0.335 | 0.186 | 0.852 | 0.81 | 0.552 | 1.02 | 0.881 | 0.815 | 0.843 | 0.614 | 0.567 | 0.689 | 0.719 | 0.41
15 | NCI-H1993 | 0.498 | 0.545 | 0.486 | 0.837 | 0.861 | 0.912 | 0.45 | 0.403 | 0.382 | 0.788 | 0.162 | 0.378 | 0.6 | 0.483 | 0.447 | 0.697 | 0.765 | 0.589

— the supplement of paper PMC10307832
